In US5158950A, “1,3-dithiol-2-ylidene derivatives and process for the preparation thereof” (Yuhan Corporation, Ltd., priority 1987, dated 1992):

test system: serum ALT activity induced by CCl4; test: Protective effect against acute hepatic damage induced by carbon tetrachloride (serum ALT); assay type: in vivo; conditions: Mus musculus; mice, 50 mg/kg oral, 6 h before CCl4 (50 ul/kg oral); ALT 24 h after CCl4; read-out: Inhibitory (%): protective effect against increase of serum ALT activity induced by CCl4
Description: Principle; Carbon tetrachloride (CCl4) is a well-known hepatotoxic agent, thus widely used to produce experimental animal models for screening the potential drugs acting upon hepatic diseases. In this experiment test compounds were administered to mice prior to treatment with CCl4. 24 Hours after the CCl4 treatment, the animals were sacrificed and serum alanine aminotransferase (ALT) levels were determined. The hepatoprotective effect of a test compound was evaluated by the suppressive action against the increase of serum ALT induced by CCl4.
Method; The experimental animals were divided into normal, CCl4 treated and test compound treated groups. Each group consisted of 8 mice with body weight of 20-25 grams. The test compounds were suspended in 0.2% sodium carboxy methyl cellulose (CMC-Na) solution and administered orally at the dose of 50 mg/125 ml/kg body weight. Only the vehicle, 0.2% CMC-Na solution, was administered to the normal and to the CCl4 treated group instead of the test compound suspension. 6 Hours after the drug administration, the CCl4 solution in olive oil was administered orally to the CCl4 treated- and the test compound treated group at the dose of 50 ul/25 ml olive oil/kg body weight. The normal group was administered olive oil only at the same dose. 24 Hours after the CCl4 administration, blood samples were collected from the orbital sinus of the animals and the sera were obtained by centrifugation The serum ALT activities were monitored using an automatic blood analyzer (Gilford, SBA 300). The hepatoprotective effect of the test compounds was expressed by the suppressive percentage against the increase of serum ALT level induced by CCl4 calculated by the following formula; [formula]

| SMILES | inhibition in vivo at 50 mg/kg [%] |
| --- | --- |
| CCN(CC)C(=O)C(C(=O)OC(C)C)=C1SC=CS1 [Example 13, Isopropyl 2-(1,3-dithiol-2-ylidene)-2-(N,N-diethylcarbamoyl) acetate] | 55.6 |
| COc1cccc(NC(=O)C(C(=O)OC(C)C)=C2SC=CS2)c1 [Example 17(o), isopropyl 2-(1,3-dithiol-2-ylidene)-2-[N-(3-methoxyphenyl)carbamoyl]acetate] | 100 |
| CC(C)OC(=O)C(C(=O)Nc1ccccc1O)=C1SC=CS1 [22(d), Isopropyl 2-(1,3-dithiol-2-ylidene)-2-[N-(2-hydroxyphenyl)carbamoyl]acetate] | 16.2 |
| CC(=O)Oc1ccccc1NC(=O)C(C(=O)OC(C)C)=C1SC=CS1 [24(c), Isopropyl 2-(1,3-dithiol-2ylidene)-2-[N-(2-acetoxyphenyl)carbamoyl]acetate] | 22.8 |
| Cc1cccc(NC(=O)C(C(=O)OC(C)C)=C2SC=CS2)c1C [17(f), Isopropyl 2-(1,3-dithiol-2-ylidene)-2-[N-(2,3-dimethylphenyl)carbamoyl]acetate] | 92 |
| CC(C)OC(=O)C(C(=O)N1CCCC1C(=O)O)=C1SC=CS1 (stereo not drawn) [Example 15, Isopropyl 2-(1,3-dithiol-2-ylidene)-2-[(2-carboxypyrrolidin-1-yl)carbonyl]acetate] | 14 |
| CC(=O)Oc1ccc(NC(=O)C(C(=O)OC(C)C)=C2SC=CS2)cc1 [24(a), Isopropyl 2-(1,3-dithiol-2-ylidene)-2-[N-(4-acetoxyphenyl)carbamoyl]acetate] | 102 |
| CC(C)OC(=O)C(C(=O)n1ccnc1)=C1SC=CS1 [26(d), Isopropyl 2-(1,3-dithiol-2-ylidene)-2-(1-imidazolylcarbaony)acetate] | 98 |
| CC(C)OC(=O)C(C(=O)N1CCN(C)CC1)=C1SC=CS1 [26(b), Isopropyl 2-(1,3-dithiol-2-ylidene)-2-[(4-methylpiperazin-1-yl)carbonyl]acetate] | 46 |
| CC(C)OC(=O)C(C(=O)N(C)c1ccccc1)=C1SC=CS1 [Example 16, Isopropyl 2-(1,3-dithiol-2-ylidene)-2-(N-methyl-N-phenylcarbamoyl)acetate] | 47.9 |
| CNC(=O)C(C(=O)OC(C)C)=C1SC=CS1 [Example 10, Isopropyl 2-(1,3-dithiol-2-ylidene)-2-(N-methylcarbamoyl) acetate] | 92 |
| CC(C)OC(=O)C(C(=O)N1CCCC1)=C1SC=CS1 [26(c), Isopropyl 2-(1,3-dithiol-2-ylidene)-2-(1-pryrrolidinylcarbaonyl) acetate] | 90.5 |
| CC(C)OC(=O)C(C(=O)NC1CCCCC1)=C1SC=CS1 [Example 12, Isopropyl 2-(1,3-dithiol-2-ylidene)-2-(N-cyclohexylcarbamoyl)acetate] | 98 |
| CC(C)OC(=O)C(C(=O)Nc1cccc(C(F)(F)F)c1)=C1SC=CS1 [17(t), Isopropyl 2-(1,3-dithiol-2-ylidene)-2-[N-(3-trifluoromethylphenyl)carbamoyl]acetate] | 96 |
| CC(C)OC(=O)C(C(N)=O)=C1SC=CS1 [Example 9, Isopropyl 2-(1,3-dithiol-2-ylidene)-2-carbamoylacetate] | 65.5 |
| Cc1ccc(NC(=O)C(C(=O)OC(C)C)=C2SC=CS2)cc1 [17(e), Isopropyl 2-(1,3-dithiol-2-ylidene)-2-[N-(4-methylphenyl)carbamoyl]acetate] | 100 |
| CC(=O)Nc1cccc(NC(=O)C(C(=O)OC(C)C)=C2SC=CS2)c1 [17(r), Isopropyl 2-(1,3-dithiol-2-ylidene)-2-[N-(3-acetamidophenyl)carbamoyl]acetate] | 46.6 |
| CC(C)OC(=O)C(C(=O)N1CCOCC1)=C1SC=CS1 [26(a), Isopropyl 2-(1,3-dithiol-2-ylidene)-2-(4-morpholinylcarbonyl)acetate] | 66.5 |
